Source: patent US12145944B2, “Imidazopyrimidines as EED inhibitors and the use thereof” (THE REGENTS OF THE UNIVERSITY OF MICHIGAN, priority 2019, dated 2024)

How the values were obtained:
[1] = tested on: KARPAS422 human B cell lymphoma cell; assay: Cell proliferation, KARPAS422, 7 day treatment (WST-8); type: cell-based; settings: Homo sapiens, KARPAS-422, 168 h, anti-proliferative IC50, Karpas 422 cell line, 7 day treatment; read-out: Karpas Cell line
Summary of the method: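 KARPAS422 cells seeded at 2 000-3 000 cells/well and exposed to serially diluted compounds for 7 days at 37 °C, 5% CO2. Growth measured by WST-8 (1-4 h, absorbance 450 nm). Readings normalized to DMSO-treated cells; IC50 from nonlinear regression.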

Pfeiffer cell line = assay: Anti-proliferative activity, Pfeiffer cell line, 7 day treatment; type: cell-based; settings: Homo sapiens, 168 h; anti-proliferative IC50, Pfeiffer cell line, 7 day treatment; read-out: Pfeiffer Cell line
Summary of the method: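 Cells seeded at 2 000-3 000 per well were treated with serially diluted compounds for 7 days at 37° C, 5% CO2. Growth was measured by WST-8 assay read at 450 nm after 1-4 h reagent incubation. Readings were normalized to DMSO-treated cells and IC50 values derived by nonlinear regression.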

Row | SMILES | IC50 [1] | IC50 (Pfeiffer cell line)
1 | COc1cccc(F)c1CNc1ncc2c3c(ncn13)C(=O)OCc1cc(C(F)(F)F)ccc1-2 [compound 28, 12-((2-fluoro-6-methoxybenzyl)amino)-7-(trifluoromethyl)-3H,5H-4-oxa-2,11,12a-triazabenzo[4,5]cycloocta[1,2,3-cd]inden-3-one] | > 100 nM | > 100 nM
2 | O=C1OCc2cnc(C(F)(F)F)cc2-c2cnc(NCc3c(F)ccc4c3CCO4)n3cnc1c23 [compound 32, 12-(((5-fluoro-2,3-dihydrobenzofuran-4-yl)methyl)amino)-8-(trifluoromethyl)-3H,5H-4-oxa-2,7,11,12a-tetraazabenzo[4,5]cycloocta[1,2,3-cd]inden-3-one] | 84.4 nM | 11.6 nM
3 | CN1Cc2nc(C(F)(F)F)ccc2-c2cnc(NCc3c(F)ccc4c3CCO4)n3cnc(c23)C1=O [compound 33, 12-(((5-fluoro-2,3-dihydrobenzofuran-4-yl)methyl)amino)-4-methyl-7-(trifluoromethyl)-4,5-dihydro-3H-2,4,6,11,12a-pentaazabenzo[4,5]cycloocta[1,2,3-cd]inden-3-one] | 1.11 nM | 0.22 nM
4 | CN1Cc2cc(C(F)(F)F)ncc2-c2cnc(NCc3c(F)ccc4c3CCO4)n3cnc(c23)C1=O [compound 34, 12-(((5-fluoro-2,3-dihydrobenzofuran-4-yl)methyl)amino)-4-methyl-7-(trifluoromethyl)-4,5-dihydro-3H-2,4,8,11,12a-pentaazabenzo[4,5]cycloocta[1,2,3-cd]inden-3-one] | 2.64 nM | 0.35 nM
5 | O=C1c2ncn3c(NCc4c(F)ccc5c4CCO5)ncc(c23)-c2ccc(C(F)(F)F)nc2CN1CC1COCCO1 (centres unmarked) [compound 35, 4-((1,4-dioxan-2-yl)methyl)-12-(((5-fluoro-2,3-dihydrobenzofuran-4-yl)methyl)amino)-7-(trifluoromethyl)-4,5-dihydro-3H-2,4,6,11,12a-pentaazabenzo[4,5]cycloocta[1,2,3-cd]inden-3-one] | 1.23 nM | 0.12 nM
6 | O=C1c2ncn3c(NCc4c(F)ccc5c4CCO5)ncc(c23)-c2cnc(C(F)(F)F)cc2CN1CC1COCCO1 (centres unmarked) [compound 37, 4-((1,4-dioxan-2-yl)methyl)-12-(((5-fluoro-2,3-dihydrobenzofuran-4-yl)methyl)amino)-7-(trifluoromethyl)-4,5-dihydro-3H-2,4,8,11,12a-pentaazabenzo[4,5]cycloocta[1,2,3-cd]inden-3-one] | 1.79 nM | 0.25 nM
7 | CN1CCC(CN2Cc3cc(C(F)(F)F)ncc3-c3cnc(NCc4c(F)ccc5c4CCO5)n4cnc(c34)C2=O)CC1 [compound 38, 12-(((5-fluoro-2,3-dihydrobenzofuran-4-yl)methyl)amino)-4-((1-methylpiperidin-4-yl)methyl)-7-(trifluoromethyl)-4,5-dihydro-3H-2,4,8,11,12a-pentaazabenzo[4,5]cycloocta[1,2,3-cd]inden-3-one] | 15.7 nM | 3.22 nM
8 | CN1Cc2ccc(C(F)(F)F)nc2-c2cnc(NCc3c(F)ccc4c3CCO4)n3cnc(c23)C1=O [compound 39, 12-(((5-fluoro-2,3-dihydrobenzofuran-4-yl)methyl)amino)-4-methyl-8-(trifluoromethyl)-4,5-dihydro-3H-2,4,9,11,12a-pentaazabenzo[4,5]cycloocta[1,2,3-cd]inden-3-one] | > 100 nM | 22.7 nM
9 | O=C1c2ncn3c(NCc4c(F)ccc5c4CCO5)ncc(c23)-c2nc(C(F)(F)F)ccc2CN1CC1COCCO1 (centres unmarked) [compound 40, 4-((1,4-dioxan-2-yl)methyl)-12-(((5-fluoro-2,3-dihydrobenzofuran-4-yl)methyl)amino)-8-(trifluoromethyl)-4,5-dihydro-3H-2,4,9,11,12a-pentaazabenzo[4,5]cycloocta[1,2,3-cd]inden-3-one] | > 100 nM | 38.8 nM
10 | O=C1c2ncn3c(NCc4c(F)ccc5c4CCO5)ncc(c23)-c2ccc(C(F)(F)F)nc2CN1C1CC1 [compound 41, 4-cyclopropyl-12-(((5-fluoro-2,3-dihydrobenzofuran-4-yl)methyl)amino)-7-(trifluoromethyl)-4,5-dihydro-3H-2,4,6,11,12a-pentaazabenzo[4,5]cycloocta[1,2,3-cd]inden-3-one] | 1.69 nM | 1.03 nM
11 | CN1CCC(CN2Cc3nc(C(F)(F)F)ccc3-c3cnc(NCc4c(F)ccc5c4CCO5)n4cnc(c34)C2=O)CC1 [compound 42, 12-(((5-fluoro-2,3-dihydrobenzofuran-4-yl)methyl)amino)-4-((1-methylpiperidin-4-yl)methyl)-7-(trifluoromethyl)-4,5-dihydro-3H-2,4,6,11,12a-pentaazabenzo[4,5]cycloocta[1,2,3-cd]inden-3-one] | 4.01 nM | 4.19 nM
12 | O=C1c2ncn3c(NCc4c(F)ccc5c4CCO5)ncc(c23)-c2cnc(C(F)(F)F)cc2CN1CC1(O)CC1 [compound 43, 12-(((5-fluoro-2,3-dihydrobenzofuran-4-yl)methyl)amino)-4-((1-hydroxycyclopropyl)methyl)-7-(trifluoromethyl)-4,5-dihydro-3H-2,4,8,11,12a-pentaazabenzo[4,5]cycloocta[1,2,3-cd]inden-3-one] | 5.46 nM | 1.05 nM
13 | O=C1c2ncn3c(NCc4c(F)ccc5c4CCO5)ncc(c23)-c2ccc(C(F)(F)F)nc2CN1CC1(O)CC1 [compound 44, 12-(((5-fluoro-2,3-dihydrobenzofuran-4-yl)methyl)amino)-4-((1-hydroxycyclopropyl)methyl)-7-(trifluoromethyl)-4,5-dihydro-3H-2,4,6,11,12a-pentaazabenzo[4,5]cycloocta[1,2,3-cd]inden-3-one] | 2.44 nM | 1.03 nM
14 | O=C1c2ncn3c(NCc4c(F)ccc5c4CCO5)ncc(c23)-c2cnc(C(F)(F)F)cc2CN1CC1CCOCC1 [compound 45, 12-(((5-fluoro-2,3-dihydrobenzofuran-4-yl)methyl)amino)-4-((tetrahydro-2H-pyran-4-yl)methyl)-7-(trifluoromethyl)-4,5-dihydro-3H-2,4,8,11,12a-pentaazabenzo[4,5]cycloocta[1,2,3-cd]inden-3-one] | 6.15 nM | 0.61 nM
15 | CC(F)(F)CN1Cc2cc(C(F)(F)F)ncc2-c2cnc(NCc3c(F)ccc4c3CCO4)n3cnc(c23)C1=O [compound 82, 4-(2,2-difluoropropyl)-12-(((5-fluoro-2,3-dihydrobenzofuran-4-yl)methyl)amino)-7-(trifluoromethyl)-4,5-dihydro-3H-2,4,8,11,12a-pentaazabenzo[4,5]cycloocta[1,2,3-cd]inden-3-one] | 3.51 nM | 0.074 nM
16 | O=C1c2ncn3c(NCc4c(F)ccc5c4CCO5)ncc(c23)-c2ccc(C(F)(F)F)cc2CN1CC(F)(F)F [compound 83, 12-(((5-fluoro-2,3-dihydrobenzofuran-4-yl)methyl)amino)-4-(2,2,2-trifluoroethyl)-7-(trifluoromethyl)-4,5-dihydro-3H-2,4,11,12a-tetraazabenzo[4,5]cycloocta[1,2,3-cd]inden-3-one] | 6.32 nM | 0.304 nM
17 | O=C1c2ncn3c(NCc4c(F)ccc5c4CCO5)ncc(c23)-c2cnc(C(F)(F)F)cc2CN1CC(F)(F)F [compound 84, 12-(((5-fluoro-2,3-dihydrobenzofuran-4-yl)methyl)amino)-4-(2,2,2-trifluoroethyl)-7-(trifluoromethyl)-4,5-dihydro-3H-2,4,8,11,12a-pentaazabenzo[4,5]cycloocta[1,2,3-cd]inden-3-one] | 1.48 nM | 0.048 nM
18 | O=C1c2ncn3c(NCc4c(F)ccc5c4CCO5)ncc(c23)-c2cnc(C(F)(F)F)cc2CN1C1CC(F)(F)C1 [compound 85, 4-(3,3-difluorocyclobutyl)-12-(((5-fluoro-2,3-dihydrobenzofuran-4-yl)methyl)amino)-7-(trifluoromethyl)-4,5-dihydro-3H-2,4,8,11,12a-pentaazabenzo[4,5]cycloocta[1,2,3-cd]inden-3-one] | 2.71 nM | 0.13 nM
19 | Cc1nc2c(s1)-c1cnc(NCc3c(F)ccc4c3CCO4)n3cnc(c13)C(=O)N(C1CC1)C2 [compound 86, 4-cyclopropyl-11-(((5-fluoro-2,3-dihydrobenzofuran-4-yl)methyl)amino)-7-methyl-4,5-dihydro-3H-8-thia-2,4,6,10,11a-pentaazacyclopenta[4,5]cycloocta[1,2,3-cd]inden-3-one] | 2.29 nM | 0.021 nM
20 | O=C1c2ncn3c(NCc4c(F)ccc5c4CCO5)ncc(c23)-c2ccsc2CN1C1CC1 [compound 88, 4-cyclopropyl-11-(((5-fluoro-2,3-dihydrobenzofuran-4-yl)methyl)amino)-4,5-dihydro-3H-6-thia-2,4,10,11a-tetraazacyclopenta[4,5]cycloocta[1,2,3-cd]inden-3-one] | 25.7 nM | 0.035 nM
21 | CCN1Cc2cc(C(F)(F)F)ncc2-c2cnc(NCc3c(F)ccc4c3CCO4)n3cnc(c23)C1=O [compound 90, 4-ethyl-12-(((5-fluoro-2,3-dihydrobenzofuran-4-yl)methyl)amino)-7-(trifluoromethyl)-4,5-dihydro-3H-2,4,8,11,12a-pentaazabenzo[4,5]cycloocta[1,2,3-cd]inden-3-one] | 0.078 nM | 0.044 nM
22 | O=C1c2ncn3c(NCc4c(F)ccc5c4CCO5)ncc(c23)-c2sc(C(F)(F)F)nc2CN1C1CC1 [compound 91, 4-cyclopropyl-11-(((5-fluoro-2,3-dihydrobenzofuran-4-yl)methyl)amino)-7-(trifluoromethyl)-4,5-dihydro-3H-8-thia-2,4,6,10,11a-pentaazacyclopenta[4,5]cycloocta[1,2,3-cd]inden-3-one] | 5.23 nM | 0.043 nM
